{"source": "patent US6825178B1", "about": "“Methods and products for treating pseudomonas infection” (The Brigham and Women's Hospital, Inc., priority 1996, dated 2004)", "system": "transformed human airway epithelial cells (CFT1-LCFSN line)", "experiment": "Inhibition of internalization of P. aeruginosa strain PAO1 into CFT1-LCFSN cells (bacterial ingestion assay)", "format": "cell-based", "details": "for mean cfu P. aeruginosa internalized (standard deviation): strain PAO1, CFT1-LCFSN cells", "description": "Cell lines. CFT1-LCFSN cells, carrying a retrovirally introduced chromosomal copy of the wild-type human CFTR gene were kindly provided by J. Olsen, J. Yankaskis and L. Johnson from The University of North Carolina, Chapel Hill, N.C.. The cell line parental to CFT1-LCFSN is designated CFT1; it is a line of human papilloma virus 18 E6/E7 transformed bronchial epithelial cells derived from a CF patient homozygous for ΔF508 CFTR. The CFT1-LCFSN cells have normal chloride ion conductance. CFT1-ΔF508 cells are derived from CFT1 cells and carry a cDNA introduced by a retrovirus vector that encodes the ΔF508 mutant form of CFTR. Cells were grown in supplemented F-12 medium as described in 5% CO2 at 37° C.\nBacterial strains. P. aeruginosa strains used include PAO1, a well-characterized laboratory strain, and strains 149 and 324, non-mucoid, LPS-smooth clinical isolates of P. aeruginosa from CF patients early in the course of infection. Fresh cultures of P. aeruginosa grown overnight at 37° C. on a tryptic soy agar plate were suspended in supplemented medium to prepare the bacterial inoculum. Approximately 10^6 cfu of the bacterial inoculum were added per well of 10^5, epithelial cells.\nReagents for inhibition of ingestion assays. Membranes were prepared from C127 cells as described by O'Riordan et al.. Membranes were suspended in 150 mM NaCl, 50 mM Tris, pH 7.5 and 1 mM EDTA and added at the indicated concentration to suspensions of P. aeruginosa strains prior to adding this mixture to CFT1-LCFSN cells to measure bacterial uptake. Membranes from CEM/VbI cells expressing P-glycoprotein and membranes from control CEM cells lacking P-glycoprotein were obtained from James Croop of Harvard Medical School. Purified (˜85%) recombinant CFTR was obtained from Genzyme Corp., and prepared as described. The protein was solubilized in 100 mM NaCl, 10 mM Tris, pH 8.0, 2 mM di-thio-threitol and 0.1% sodium dodecyl sulfate. Monoclonal antibodies raised to synthetic peptides corresponding to the first (MAb CF3) and fourth (MAb CF4) predicted extracellular domains of CFTR, as well as a MAb specific to a peptide representing the carboxy-terminal 14 amino acids of mature CFTR (MAb CF2) were provided by Dr. George Banting, University of Bristol, Bristol, UK [12]. Synthetic peptides were obtained from Chiron Mimetopes, San Diego, Calif. Peptide […] (15 amino acids) (SEQ.ID.NO. 3) represents amino acids 103-117 of mature CFTR, peptide […] (31 amino acids) (SEQ.ID.NO. 4) represents amino acids 881-911 of mature CFTR. Peptides were made up as a stock solution in F-12 medium containing 1 μM/μl based on the purity reported by the manufacturer. Peptides were diluted in F-12 tissue culture medium prior to use in assays.\nBacterial ingestion assay. Cells were released from monolayers in tissue culture flasks by 5 min. of incubation with trypsin-versene mixture (BioWhitaker, Walkersville, Md.), washed, counted and seeded into 96-well tissue culture plates at 10^5 cells/well in supplemented F-12 medium and incubated at 37° C. in 5% CO2. Fresh cultures of P. aeruginosa grown overnight at 37° C. on a tryptic soy agar plate were suspended in supplemented F-12 medium to prepare the bacterial inoculum. Then 10^6 colony forming units (cfu) of the bacterial inoculum were added per well of 10^5 epithelial cells. Bacteria were allowed to invade the epithelial cells for 3 to 4 hours at 37° C., after which nonadherent bacteria were removed by washing. The remaining steps of the assay and the steps involved in the controls have previously been described. Three to 9 replicates were obtained per point, and analyzed using analysis of variance (ANOVA) and the Fisher PLSD statistic to determine pairwise differences. […]", "note": "Marks after values point to notes of the source that are not given here."}
{"substance": "CFTR: purified (~85%) recombinant CFTR obtained from Genzyme Corp.", "values": [{"measurement": "inhibition of bacterial ingestion (in words)", "setting": "CFT1-LCFSN cells, nanogram quantities of CFTR", "result": "significant inhibition of bacterial ingestion"}, {"measurement": "mean cfu P. aeruginosa internalized (standard deviation)", "setting": "9.7 μg protein/ml", "result": "1.05 × 10^5 (2.5 × 10^4) cfu"}, {"measurement": "mean cfu P. aeruginosa internalized (standard deviation)", "setting": "78 μg protein/ml", "result": "8.55 × 10^4 (1.15 × 10^4) cfu"}, {"measurement": "mean cfu P. aeruginosa internalized (standard deviation)", "setting": "625 μg protein/ml", "result": "4.9 × 10^4 (1.25 × 10^4)^a cfu"}, {"measurement": "mean cfu P. aeruginosa internalized (standard deviation)", "setting": "5000 μg protein/ml", "result": "1.65 × 10^4 (1.05 × 10^4)^a cfu"}]}
